Organism: Rattus norvegicus
Experiment: Open TG-GATES - Regimen: Daily Repeat
Type: toxicity, organism-based, Sprague-Dawley
Design: regimen Daily Repeat, gender Male, age 6 weeks
Details: in vivo, po, 0 mg/kg, route gavage, dose level Control; for APTT / Bas / Eos / Fbg / Hb / Ht / Lym / MCH / MCHC / MCV / Mono / Neu / PT / Plat / RBC / Ret / WBC: tissue Blood; for KIDNEY_L / KIDNEY_R / KIDNEY_TOTAL: tissue Kidney; for LIVER: tissue Liver; for ALP / ALT / AST / BUN / CRE / Ca / Cl / DBIL / GLC / IP / K / LDH / Na / PL / RALB / TBIL / TC / TG / TP / gamma-GTP: tissue Plasma

Compound: O=P1(N(CCCl)CCCl)NCCCO1 (stereo not drawn) [CYCLOPHOSPHAMIDE ANHYDROUS]
- TERMINAL_BW (72 h, time 3 day): 215.1 g
- APTT (72 h, time 3 day): 21.5 s
- Bas (72 h, time 3 day): 0%
- Eos (72 h, time 3 day): 0.8%
- Fbg (72 h, time 3 day): 293.2 mg/dL
- Hb (72 h, time 3 day): 13.3 g/dL
- Ht (72 h, time 3 day): 40.1%
- Lym (72 h, time 3 day): 81.4%
- MCH (72 h, time 3 day): 21.8 pg
- MCHC (72 h, time 3 day): 33.2%
- MCV (72 h, time 3 day): 65.7 fL
- Mono (72 h, time 3 day): 2.6%
- Neu (72 h, time 3 day): 14.6%
- PT (72 h, time 3 day): 16.8 s
- Plat (72 h, time 3 day): 112 x10_4/uL
- RBC (72 h, time 3 day): 611 x10_4/ul
- Ret (72 h, time 3 day): 6.7%
- WBC (72 h, time 3 day): 82.4 x10_2/uL
- KIDNEY_L (72 h, time 3 day): 0.9 g
- KIDNEY_R (72 h, time 3 day): 0.9 g
- KIDNEY_TOTAL (72 h, time 3 day): 1.9 g
- LIVER (72 h, time 3 day): 10.1 g
- ALP (72 h, time 3 day): 1749.2 IU/L
- ALT (72 h, time 3 day): 40.2 IU/L
- AST (72 h, time 3 day): 68 IU/L
- BUN (72 h, time 3 day): 15.4 mg/dL
- CRE (72 h, time 3 day): 0.2 mg/dL
- Ca (72 h, time 3 day): 10.8 mg/dL
- Cl (72 h, time 3 day): 106.2 meq/L
- DBIL (72 h, time 3 day): 0.002 mg/dL
- GLC (72 h, time 3 day): 182.6 mg/dL
- IP (72 h, time 3 day): 6.4 mg/dL
- K (72 h, time 3 day): 3.9 meq/L
- LDH (72 h, time 3 day): 190.6 IU/L
- Na (72 h, time 3 day): 142.6 meq/L
- PL (72 h, time 3 day): 133.8 mg/dL
- RALB (72 h, time 3 day): 3.1 g/dL
- TBIL (72 h, time 3 day): 0.018 mg/dL
- TC (72 h, time 3 day): 69.6 mg/dL
- TG (72 h, time 3 day): 84.2 mg/dL
- TP (72 h, time 3 day): 5.5 g/dL
- gamma-GTP (72 h, time 3 day): 1 IU/L
- TERMINAL_BW ([…], time 7 day): 254.4 g
- TERMINAL_BW ([…], time 14 day): 304.2 g
- TERMINAL_BW ([…], time 28 day): 368.5 g
- APTT ([…], time 7 day): 21.7 s
- Bas ([…], time 7 day): 0%
- Eos ([…], time 7 day): 1%
- Fbg ([…], time 7 day): 283.2 mg/dL
- Hb ([…], time 7 day): 13.1 g/dL
- Ht ([…], time 7 day): 39.7%
- Lym ([…], time 7 day): 80%
- MCH ([…], time 7 day): 20.7 pg
- MCHC ([…], time 7 day): 33.1%
- MCV ([…], time 7 day): 62.7 fL
- Mono ([…], time 7 day): 2.4%
- Neu ([…], time 7 day): 16.2%
- PT ([…], time 7 day): 16.8 s
- Plat ([…], time 7 day): 112.1 x10_4/uL
- RBC ([…], time 7 day): 633.4 x10_4/ul
- Ret ([…], time 7 day): 6.1%
- WBC ([…], time 7 day): 106.9 x10_2/uL
- APTT ([…], time 14 day): 22 s
- Bas ([…], time 14 day): 0%
- Eos ([…], time 14 day): 1%
- Fbg ([…], time 14 day): 307.8 mg/dL
- Hb ([…], time 14 day): 13.7 g/dL
- Ht ([…], time 14 day): 40.6%
- Lym ([…], time 14 day): 81.4%
- MCH ([…], time 14 day): 20.2 pg
- MCHC ([…], time 14 day): 33.7%
- MCV ([…], time 14 day): 60 fL
- Mono ([…], time 14 day): 2.2%
- Neu ([…], time 14 day): 14.6%
- PT ([…], time 14 day): 15 s
- Plat ([…], time 14 day): 118.8 x10_4/uL
- RBC ([…], time 14 day): 676.6 x10_4/ul
- Ret ([…], time 14 day): 4.8%
- WBC ([…], time 14 day): 131.2 x10_2/uL
- APTT ([…], time 28 day): 23.8 s
- Bas ([…], time 28 day): 0%
- Eos ([…], time 28 day): 1%
- Fbg ([…], time 28 day): 303.8 mg/dL
- Hb ([…], time 28 day): 14.8 g/dL
- Ht ([…], time 28 day): 43.6%
- Lym ([…], time 28 day): 82.4%
- MCH ([…], time 28 day): 19.2 pg
- MCHC ([…], time 28 day): 34%
- MCV ([…], time 28 day): 56.6 fL
- Mono ([…], time 28 day): 2%
- Neu ([…], time 28 day): 13.6%
- PT ([…], time 28 day): 16.5 s
- Plat ([…], time 28 day): 96.2 x10_4/uL
- RBC ([…], time 28 day): 769.8 x10_4/ul
- Ret ([…], time 28 day): 2.9%
- WBC ([…], time 28 day): 112.3 x10_2/uL
- KIDNEY_L ([…], time 7 day): 1.1 g
- KIDNEY_R ([…], time 7 day): 1.1 g
- KIDNEY_TOTAL ([…], time 7 day): 2.2 g
- KIDNEY_L ([…], time 14 day): 1.2 g
- KIDNEY_R ([…], time 14 day): 1.2 g
- KIDNEY_TOTAL ([…], time 14 day): 2.4 g
- KIDNEY_L ([…], time 28 day): 1.3 g
- KIDNEY_R ([…], time 28 day): 1.3 g
- KIDNEY_TOTAL ([…], time 28 day): 2.6 g
- LIVER ([…], time 7 day): 11 g
- LIVER ([…], time 14 day): 13.4 g
- LIVER ([…], time 28 day): 14.2 g
- ALP ([…], time 7 day): 1566.6 IU/L
- ALT ([…], time 7 day): 44.8 IU/L
- AST ([…], time 7 day): 77.6 IU/L
- BUN ([…], time 7 day): 18.6 mg/dL
- CRE ([…], time 7 day): 0.2 mg/dL
- Ca ([…], time 7 day): 10.7 mg/dL
- Cl ([…], time 7 day): 106 meq/L
- DBIL ([…], time 7 day): 0 mg/dL
- GLC ([…], time 7 day): 196.2 mg/dL
- IP ([…], time 7 day): 7.9 mg/dL
- K ([…], time 7 day): 4.4 meq/L
- LDH ([…], time 7 day): 200.2 IU/L
- Na ([…], time 7 day): 143.8 meq/L
- PL ([…], time 7 day): 146.8 mg/dL
- RALB ([…], time 7 day): 2.9 g/dL
- TBIL ([…], time 7 day): 0.016 mg/dL
- TC ([…], time 7 day): 73.8 mg/dL
- TG ([…], time 7 day): 98.2 mg/dL
- TP ([…], time 7 day): 5.4 g/dL
- gamma-GTP ([…], time 7 day): 1.6 IU/L
- ALP ([…], time 14 day): 1394.4 IU/L
- ALT ([…], time 14 day): 37.8 IU/L
- AST ([…], time 14 day): 65.8 IU/L
- BUN ([…], time 14 day): 18.2 mg/dL
- CRE ([…], time 14 day): 0.2 mg/dL
- Ca ([…], time 14 day): 10.6 mg/dL
- Cl ([…], time 14 day): 107 meq/L
- DBIL ([…], time 14 day): 0 mg/dL
- GLC ([…], time 14 day): 182.6 mg/dL
- IP ([…], time 14 day): 7 mg/dL
- K ([…], time 14 day): 4 meq/L
- LDH ([…], time 14 day): 152 IU/L
- Na ([…], time 14 day): 143.4 meq/L
- PL ([…], time 14 day): 140.4 mg/dL
- RALB ([…], time 14 day): 2.9 g/dL
- TBIL ([…], time 14 day): 0.012 mg/dL
- TC ([…], time 14 day): 67.4 mg/dL
- TG ([…], time 14 day): 147.4 mg/dL
- TP ([…], time 14 day): 5.7 g/dL
- gamma-GTP ([…], time 14 day): 1.4 IU/L
- ALP ([…], time 28 day): 1084 IU/L
- ALT ([…], time 28 day): 40.4 IU/L
- AST ([…], time 28 day): 66.4 IU/L
- BUN ([…], time 28 day): 17.4 mg/dL
- CRE ([…], time 28 day): 0.2 mg/dL
- Ca ([…], time 28 day): 10.3 mg/dL
- Cl ([…], time 28 day): 106.6 meq/L
- DBIL ([…], time 28 day): 0 mg/dL
- GLC ([…], time 28 day): 181.2 mg/dL
- IP ([…], time 28 day): 6.4 mg/dL
- K ([…], time 28 day): 4 meq/L
- LDH ([…], time 28 day): 121.8 IU/L
- Na ([…], time 28 day): 144 meq/L
- PL ([…], time 28 day): 135.4 mg/dL
- RALB ([…], time 28 day): 3.1 g/dL
- TBIL ([…], time 28 day): 0.02 mg/dL
- TC ([…], time 28 day): 67 mg/dL
- TG ([…], time 28 day): 111.2 mg/dL
- TP ([…], time 28 day): 6.2 g/dL
- gamma-GTP ([…], time 28 day): 1.2 IU/L

Reference: ChEMBL document CHEMBL3885861, “Open TG-GATES”
